Reference: PubChem BioAssay (NCI)
Values joined by “and” are separate entries in the source; they are usually repeats but may differ in a detail not shown here. Identical values can stand only once.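 How tested: cells in 96-well plates exposed to compound for 48 hours at five concentrations. The concentration for 50% growth inhibition is given as GI50. Definition used: TGI = concentration required for complete inhibition of growth.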

These compounds were tested on SK-MEL-2 melanoma (assay: NCI-60 cell line screen, 48 h).
Compound `COc1cc2c(cc1OCc1ccccc1)CNCC2` has a TGI of over 100 µM.
Compound `O=C(O)c1cc(O)c2c(c1)C(C1c3cc(C(=O)O)cc(O)c3C(=O)c3c(OC4OC(CO)C(O)C(O)C4O)cccc31)c1cccc(OC3OC(CO)C(O)C(O)C3O)c1C2=O` (stereo not drawn) has a GI50 of over 100 µM and a TGI of over 100 µM.
For `COc1cc2cn3c4ccc(O)cc4[nH]c(=O)c3c2cc1OC`, the GI50 was 0.0398 µM and the TGI was 5.36 µM.
`O=C(CCC(=O)Nc1cccc(Cl)c1)CC(=O)c1ccc(Cl)cc1` showed a TGI of over 100 µM.
`O=C(CCCN1CC=C(n2c(=O)[nH]c3ccccc32)CC1)c1ccc(F)cc1` was tested, and the GI50 was 19.5 µM and the TGI was 70.9 µM.
In the case of `CC(=O)Oc1ccccc1C(=O)N=C1[Se]CCCN1C(=O)c1ccccc1OC(C)=O`, the GI50 is reported as 2.38 µM and the TGI is reported as 5.09 µM.
Work on `COc1ccc(C2C(C#N)=C(N)OC3=C2COc2ccc(F)cc23)cc1OC` (stereo not drawn) yielded a GI50 of 68.7 µM and a TGI of over 100 µM.
`CCCS(=O)(=O)Nc1ccc(Nc2c3ccccc3nc3ccccc23)c(OC)c1` showed a TGI of 7.7 µM.
`CCN(CC)CC(C)(C)C(=O)/C=C/c1ccc(Cl)c(Cl)c1` gave a GI50 of 2.5 µM and a TGI of 4.63 µM.
For `O=C(CSc1nnc(-c2ccccc2NC(=O)C(F)(F)F)c(=O)[nH]1)NC(=O)Nc1ccccc1`, the TGI was over 100 µM.
Work on `N#CC1Nc2ccccc2[C@@H](O)C1O` (stereo partly drawn) yielded a TGI of over 100 µM.
`O=C1c2ccn(CCCCNC(CO)(CO)CO)c2C(=O)c2c1c(O)c1ccccc1c2O` was tested, and the GI50 was 31.6 µM and the TGI was over 100 µM.
`CCOC(=O)c1[nH]c(COC(C)=O)c(CCCOC(C)=O)c1CCCOC(C)=O` gave a TGI of over 100 µM.
For `COc1ccc(-c2cc(-c3cccn3C)c(C#N)c(N)n2)cc1OC`, the GI50 was over 100 µM and the TGI was over 100 µM.

These compounds were tested on SK-MEL-5 melanoma (assay: NCI-60 cell line screen, 48 h).
`COc1ccccc1/C=C/c1cnccn1` showed a TGI of over 10 µM.
`Nc1nc(Nc2ccccc2)c2ncn(Cc3cc4c(cc3Br)OCO4)c2n1` gave a GI50 of 0.0485 µM and a TGI of 0.278 µM.
For `O=C(Nc1cccc(Cl)c1)c1cc2ccccc2cc1O`, the GI50 was 1.24 µM and 0.661 µM and the TGI was 4.15 µM and 2.5 µM.
Compound `Nc1c(C(=O)N/N=C/c2ccc(-c3ccc(Cl)cc3)o2)cnn1-c1ccnc2c(C(F)(F)F)cccc12` has a GI50 of 49.1 µM and a TGI of over 100 µM.
`CCCCCc1c(C)[nH]c(/C=C2\N=C(c3ccc[nH]3)C=C2CC)c1C` gave a GI50 of 0.0141 µM and a TGI of 0.0278 µM.
For `CC(=O)Oc1ccccc1C(=O)N=C1[Se]CCN1C(=O)c1ccccc1OC(C)=O`, the GI50 was 0.566 µM and the TGI was 2.05 µM.
`CC(C)c1ccccc1S(=O)c1ccccc1C(C)(C)O` (stereo not drawn) showed a TGI of 81.5 µM.
`CC(C)(C)C(=O)/C=C/c1ccc(Oc2ccccc2)cc1` gave a TGI of 32.5 µM.
For `CCOC(=O)[C@H](CCCNC(=O)OC(C)(C)C)NCc1ccc(OC)c(OC)c1`, the TGI was over 100 µM.
In the case of `COC(COC(=O)N1CCN(C=O)CC1)C1=C(N2CC2)C(=O)C(C)=C(N2CC2)C1=O` (stereo not drawn), the TGI is reported as 0.7 µM.
In the case of `N#CC(C#N)=c1[nH]c2cccc3c2-c2c(cccc2c3=C(C#N)C#N)[nH]1`, the TGI is reported as over 100 µM.
`CSC1(CC(=O)N(C)C)C(=O)Nc2ccccc21` (stereo not drawn) showed a TGI of over 100 µM.
With `CC(=O)OCC1OC([S-])C(OC(C)=O)C(OC(C)=O)C1OC(C)=O.CC[PH+](CC)CC.CC[PH+](CC)CC.[Au].[Au]` (stereo not drawn) the GI50 was 0.132 µM and the TGI was 0.346 µM.
In the case of `Cc1cc(C)n(CCNCCn2nc(C)cc2C)n1`, the TGI is reported as over 100 µM.
`COc1cc2c(cc1OCc1ccccc1)CNCC2` was tested, and the TGI was over 100 µM.
For `O=C(CN1CCCCC1)N1CCc2c([nH]c3ccccc23)C1c1cccnc1` (stereo not drawn), the TGI was over 100 µM.
`O=C(O)c1cc(O)c2c(c1)C(C1c3cc(C(=O)O)cc(O)c3C(=O)c3c(OC4OC(CO)C(O)C(O)C4O)cccc31)c1cccc(OC3OC(CO)C(O)C(O)C3O)c1C2=O` (stereo not drawn) was tested, and the GI50 was over 100 µM and the TGI was over 100 µM.
Work on `O/N=C\c1c(O)ccc2ccccc12` yielded a TGI of over 100 µM.
`COc1cc2cn3c4ccc(O)cc4[nH]c(=O)c3c2cc1OC` gave a GI50 of under 0.015 µM and a TGI of 0.563 µM.
For `Cc1n(Cc2ccc3ccccc3c2)cc[n+]1Cc1ccc2ccccc2c1`, the GI50 was 0.628 µM and the TGI was 1.87 µM.
Work on `Cc1c(C2Nc3ccccc3C2C)[nH]c2ccccc12` (stereo not drawn) yielded a GI50 of 0.894 µM and a TGI of 17.4 µM.
Compound `O=C(CCCN1CC=C(n2c(=O)[nH]c3ccccc32)CC1)c1ccc(F)cc1` has a GI50 of 14.9 µM and a TGI of 28.6 µM.
Compound `CC(=O)Oc1ccccc1C(=O)N=C1[Se]CCCN1C(=O)c1ccccc1OC(C)=O` has a GI50 of 2.01 µM and a TGI of 4.13 µM.
Compound `COc1ccc(C2C(C#N)=C(N)OC3=C2COc2ccc(F)cc23)cc1OC` (stereo not drawn) has a GI50 of 12.9 µM and a TGI of 44.9 µM.
With `CCCS(=O)(=O)Nc1ccc(Nc2c3ccccc3nc3ccccc23)c(OC)c1` the TGI was 14.7 µM.
`CCN(CC)CC(C)(C)C(=O)/C=C/c1ccc(Cl)c(Cl)c1` gave a GI50 of 1.84 µM and a TGI of 3.29 µM.
Work on `CN(C)Cc1c[nH]c2c1C(=O)c1c(c(O)c3ccccc3c1O)C2=O` yielded a GI50 of 11.2 µM and a TGI of 23.3 µM.
`N#CC1Nc2ccccc2[C@@H](O)C1O` (stereo partly drawn) gave a TGI of over 100 µM.
Compound `O=C1c2ccn(CCCCNC(CO)(CO)CO)c2C(=O)c2c1c(O)c1ccccc1c2O` has a GI50 of 5.21 µM and a TGI of 53.1 µM.
For `COc1ccc(-c2cc(-c3cccn3C)c(C#N)c(N)n2)cc1OC`, the GI50 was over 100 µM and the TGI was over 100 µM.

The compounds below were run on UACC-257 melanoma (assay: NCI-60 cell line screen, 48 h).
Work on `COc1ccccc1/C=C/c1cnccn1` yielded a TGI of over 10 µM.
With `O=C(Nc1cccc(Cl)c1)c1cc2ccccc2cc1O` the GI50 was 1.03 µM and 2.26 µM and the TGI was 7.31 µM and 6.11 µM.
`CCCCCc1c(C)[nH]c(/C=C2\N=C(c3ccc[nH]3)C=C2CC)c1C` was tested, and the GI50 was 0.0286 µM and the TGI was 0.167 µM.
With `CC(=O)Oc1ccccc1C(=O)N=C1[Se]CCN1C(=O)c1ccccc1OC(C)=O` the GI50 was 1.02 µM and the TGI was 3.2 µM.
`CC(C)c1ccccc1S(=O)c1ccccc1C(C)(C)O` (stereo not drawn) gave a TGI of over 100 µM.
`CC(C)(C)C(=O)/C=C/c1ccc(Oc2ccccc2)cc1` gave a TGI of 42.6 µM.
In the case of `CCOC(=O)[C@H](CCCNC(=O)OC(C)(C)C)NCc1ccc(OC)c(OC)c1`, the TGI is reported as over 100 µM.
`COC(COC(=O)N1CCN(C=O)CC1)C1=C(N2CC2)C(=O)C(C)=C(N2CC2)C1=O` (stereo not drawn) showed a TGI of 1.9 µM.
`O=C(/C=C/c1c(O)ccc2ccccc12)c1ccc2ccccc2c1` gave a TGI of over 100 µM.
`N#CC(C#N)=c1[nH]c2cccc3c2-c2c(cccc2c3=C(C#N)C#N)[nH]1` was tested, and the TGI was over 100 µM.
With `CSC1(CC(=O)N(C)C)C(=O)Nc2ccccc21` (stereo not drawn) the TGI was over 100 µM.
`CC(=O)OCC1OC([S-])C(OC(C)=O)C(OC(C)=O)C1OC(C)=O.CC[PH+](CC)CC.CC[PH+](CC)CC.[Au].[Au]` (stereo not drawn) gave a GI50 of 0.214 µM and a TGI of 0.937 µM.
For `Cc1cc(C)n(CCNCCn2nc(C)cc2C)n1`, the TGI was over 100 µM.
For `COc1cc2c(cc1OCc1ccccc1)CNCC2`, the TGI was over 100 µM.
For `O=C(CN1CCCCC1)N1CCc2c([nH]c3ccccc23)C1c1cccnc1` (stereo not drawn), the TGI was over 100 µM.
For `O=C(O)c1cc(O)c2c(c1)C(C1c3cc(C(=O)O)cc(O)c3C(=O)c3c(OC4OC(CO)C(O)C(O)C4O)cccc31)c1cccc(OC3OC(CO)C(O)C(O)C3O)c1C2=O` (stereo not drawn), the GI50 was over 100 µM and the TGI was over 100 µM.
In the case of `O/N=C\c1c(O)ccc2ccccc12`, the TGI is reported as over 100 µM.
Work on `COc1cc2cn3c4ccc(O)cc4[nH]c(=O)c3c2cc1OC` yielded a GI50 of under 0.0212 µM and a TGI of 0.419 µM.
With `Cc1n(Cc2ccc3ccccc3c2)cc[n+]1Cc1ccc2ccccc2c1` the GI50 was 0.588 µM and the TGI was 2.58 µM.
`Cc1c(C2Nc3ccccc3C2C)[nH]c2ccccc12` (stereo not drawn) gave a GI50 of 12.4 µM and a TGI of 28.3 µM.
`O=C(CCC(=O)Nc1cccc(Cl)c1)CC(=O)c1ccc(Cl)cc1` showed a TGI of over 100 µM.
`O=C(CCCN1CC=C(n2c(=O)[nH]c3ccccc32)CC1)c1ccc(F)cc1` showed a GI50 of 60.2 µM and a TGI of over 100 µM.
For `COc1ccc(C2C(C#N)=C(N)OC3=C2COc2ccc(F)cc23)cc1OC` (stereo not drawn), the GI50 was 41.4 µM and the TGI was over 100 µM.
In the case of `CCCS(=O)(=O)Nc1ccc(Nc2c3ccccc3nc3ccccc23)c(OC)c1`, the TGI is reported as 19.8 µM.
`CCN(CC)CC(C)(C)C(=O)/C=C/c1ccc(Cl)c(Cl)c1` gave a GI50 of 2.07 µM and a TGI of 3.64 µM.
For `CN(C)Cc1c[nH]c2c1C(=O)c1c(c(O)c3ccccc3c1O)C2=O`, the GI50 was 19.7 µM and the TGI was 35.4 µM.
For `N#CC1Nc2ccccc2[C@@H](O)C1O` (stereo partly drawn), the TGI was over 100 µM.
Compound `O=C1c2ccn(CCCCNC(CO)(CO)CO)c2C(=O)c2c1c(O)c1ccccc1c2O` has a GI50 of 7.71 µM and a TGI of 24.6 µM.
Work on `CCOC(=O)c1[nH]c(COC(C)=O)c(CCCOC(C)=O)c1CCCOC(C)=O` yielded a TGI of over 100 µM.
`COc1ccc(-c2cc(-c3cccn3C)c(C#N)c(N)n2)cc1OC` was tested, and the GI50 was over 100 µM and the TGI was over 100 µM.
